Tests used:
Type in all cases: cell-based
[1] = tested on: GPCR-mediated calcium activation step; experiment: Calcium counterscreen (calcium sensitive dye, ATP stimulated); conditions: Homo sapiens, 10 μM compound, read-out: Calcium Counterscreen (percent inhibition)
Experimental: (§1) Two counterscreen assays were run on separate cell plates utilizing the same cells as described above. In the calcium counterscreen, the cells were loaded with a calcium sensitive dye (Calcium3 Dye, Part no. 8090, Molecular Devices Corp.) and stimulated by ATP to check for compounds that block the GPCR-mediated calcium activation step. Exemplary results of this assay are shown in the lower left graph of FIG. 3. In the KCl counterscreen, cells are stimulated with 10 mM KCl instead of ATP to check for compounds that inhibit the membrane potential response by virtue of being non-specific ion channel blockers or enhancers.

human TRPM5 [2] = target: T1, human TRPM5 (Homo sapiens, UniProt Q9NZQ8); experiment: TRPM5 membrane potential dye FLIPR assay in hTRPM5-HEK293 cells, ATP stimulated; conditions: for inhibition at 10 µM: 10 μM compound, 3 μM ATP, read-out: TRPM5 Activity (percent inhibition; enhancement is negative inhibition)
T1 construct: expressed in transfected cells
T1 sequence (Q9NZQ8 1-1165): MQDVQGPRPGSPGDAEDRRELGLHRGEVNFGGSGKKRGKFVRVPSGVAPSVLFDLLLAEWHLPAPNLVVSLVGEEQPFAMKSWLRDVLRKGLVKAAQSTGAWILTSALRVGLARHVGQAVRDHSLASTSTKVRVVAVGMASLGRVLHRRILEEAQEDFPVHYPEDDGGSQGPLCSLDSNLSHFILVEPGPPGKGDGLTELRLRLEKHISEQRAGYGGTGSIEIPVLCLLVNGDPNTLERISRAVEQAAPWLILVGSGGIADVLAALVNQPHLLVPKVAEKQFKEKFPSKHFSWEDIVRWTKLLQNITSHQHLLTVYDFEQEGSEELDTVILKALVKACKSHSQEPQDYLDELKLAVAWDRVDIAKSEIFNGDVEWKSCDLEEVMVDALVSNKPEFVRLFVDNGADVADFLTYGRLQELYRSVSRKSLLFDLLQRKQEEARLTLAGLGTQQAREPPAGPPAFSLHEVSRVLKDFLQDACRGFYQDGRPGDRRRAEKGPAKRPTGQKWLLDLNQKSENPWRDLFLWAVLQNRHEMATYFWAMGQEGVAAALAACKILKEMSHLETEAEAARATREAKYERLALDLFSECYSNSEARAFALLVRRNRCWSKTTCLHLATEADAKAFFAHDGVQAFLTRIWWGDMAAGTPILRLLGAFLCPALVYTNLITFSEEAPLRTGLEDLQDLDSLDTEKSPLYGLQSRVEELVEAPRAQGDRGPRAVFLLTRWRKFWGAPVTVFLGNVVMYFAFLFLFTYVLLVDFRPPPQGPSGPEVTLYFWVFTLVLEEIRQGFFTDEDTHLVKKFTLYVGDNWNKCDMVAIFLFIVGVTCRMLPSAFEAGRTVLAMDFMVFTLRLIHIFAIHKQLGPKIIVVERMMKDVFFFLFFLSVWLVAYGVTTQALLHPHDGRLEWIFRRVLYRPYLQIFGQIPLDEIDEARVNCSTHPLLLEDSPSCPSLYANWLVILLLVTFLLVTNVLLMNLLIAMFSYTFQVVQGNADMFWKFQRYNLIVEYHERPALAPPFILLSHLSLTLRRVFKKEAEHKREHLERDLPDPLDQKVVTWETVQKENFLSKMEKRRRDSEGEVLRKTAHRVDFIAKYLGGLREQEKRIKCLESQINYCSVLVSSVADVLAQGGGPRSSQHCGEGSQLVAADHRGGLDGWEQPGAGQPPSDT
Experimental: The activity of human TRPM5 ion channel was measured in live cells on a fluorescent imaging plate reader (FLIPR). The basis of the assay (shown in FIG. 1) is the calcium-dependent activation of the ion channel which occurs via by activation of a G-protein coupled receptor (GPCR). GPCR activation by an appropriate agonist causes a transient increase in […] Ca^2+ ion concentration which in turn causes the ion channel to open, letting in Na^+ ions. This influx causes a change in the membrane potential of the cell which can be monitored as a change in the fluorescent signal from voltage-dependent (membrane potential) fluorescent dyes.
For the screening assay, the human TRPM5 gene was cloned, put into HEK293 cells, and a stable, high expression clone was used for screening. Cells were grown in standard media at 37° C. The day before screening, the cells were removed from flasks and added to 384 well clear bottom plates (8K cells in 20 μL/well). On the assay day, 20 μL of membrane potential dye (Part No. R8123, Molecular Devices Corp.) was added to the cells and dye was allowed to be taken up, i.e., load, into the cells for 1 hr at 37° C. […] The assay was started by addition of 10 μL of solution from the compound plate into the cell plate. During this process, continuous fluorescent recordings were made simultaneously for all wells. After addition of the compound solution, the tips were automatically washed and a stimulation solution of 3 μM ATP to activate TRPM5 (an agonist for an endogenous purinurgic GPCR), was added to all wells of the cell plate. The height of the response was calculated and percent inhibition or enhancement values, versus negative control wells, was calculated for the test samples. Exemplary results are shown in the upper left graph of FIG. 3.

[3] = tested on: membrane potential response (non-specific ion channel blockers or enhancers); experiment: KCl counterscreen (membrane potential response, 10 mM KCl instead of ATP); conditions: Homo sapiens, 10 μM compound, read-out: KCl Counterscreen (percent inhibition)
Experimental: as §1

human TRPM5 [4] = target: T1, human TRPM5; experiment: Whole-cell electrophysiological recording of TRPM5 current; conditions: 10 μM compound
Experimental: Standard whole-cell recordings were obtained from […] cells stably transfected with human TRPM5. Internal solution contained 135 mM CsGlutamate, 10 mM HEPES, 2 mM MgATP, 5 mM CaCl2 and 10 mM EGTA. External solution was HBSS (Gibco) buffered with 20 mM HEPES to pH 7.2. Currents were recorded with Multiclamp 700B amplifier using PClamp software; filtered at 1 kHz, sampled at 5 kHz. Holding potential was −80 mV. TRPM5 current in a single was activated by intracellular calcium dialysis (free calcium) and sampled with 200 ms ramps from −80 to 80 mV at 1 Hz. Current amplitudes were measured at −80 and 80 mV and plotted versus time. […] In essence, it appears that the compound makes the TRPM5 responsive lower or weaker Ca++ signals than is normally the case.

[5] = tested on: non-transfected, sham HEK cells; experiment: Whole-cell electrophysiological recording in sham cells

| inhibition at 10 µM (human TRPM5 [2]) [%] | effect on TRPM5 activity (FIG. 3) (human TRPM5 [2]; 1, 3, 10 and 30 μM compound) | TRPM5 current stimulation by compound (human TRPM5 [4]; 30 μm calcium) | TRPM5 current in response to compound (human TRPM5 [4]; +80 mV, calcium 300 nm) [nA] | TRPM5 current activation by compound (human TRPM5 [4]; absence of calcium) | Structure (SMILES) | inhibition at 10 µM [1] [%] | inhibition at 10 µM [3] [%] | current in sham cells [5] |
| --- | --- | --- | --- | --- | --- | --- | --- | --- |
| -139 | – | – | – | – | CCOC(=O)C/N=c1\sc2ccccc2n1C [Example 1, Ethyl 2-(3-Methylbenzo[d]thiazol-2(3H)-ylideneamino)acetate] | -18 | 10 | – |
| -136 | – | – | – | – | COc1ccccc1OCCSc1nc2ccccc2[nH]1 [Example 2, 2-(2-(2-Methoxyphenoxy)ethylthio)-1H-benzimidazole] | 19 | -3 | – |
| -113 | – | – | – | – | COC(=O)c1sccc1Oc1ccc([N+](=O)[O-])cn1 [Example 3] | 11 | 17 | – |
| -101 | – | – | – | – | CCc1nnc2nc(-c3ccc(Cl)c([N+](=O)[O-])c3)[nH]n12 [Example 4, 6-(4-Chloro-3-nitrophenyl)-3-ethyl-5H-[1,2,4]triazolo[4,3-b][1,2,4]triazole] | 13 | -32 | – |
| -100 | – | – | – | – | Cc1ccc(-c2cn3ncsc3n2)cc1 [Example 5, 6-p-Tolylimidazo[2,1-b][1,3,4]thiadiazole] | 23 | 7 | – |
| -98 | – | – | – | – | O=C(Nc1ccccc1)N1CCCN(c2nc(-c3ccccc3)ns2)CC1 [Example 6, N-Phenyl-4-(3-phenyl-1,2,4-thiadiazol-5-yl)-1,4-diazepane-1-carboxamide] | -69 | 16 | – |
| -95 | – | – | – | – | COc1cccc(OC)c1OCCSc1nc2ccccc2n1CCO [Example 7, 2-(2-(2-(2,6-Dimethoxyphenoxy)ethylthio)-1H-benzimidazol-1-yl)ethanol] | -15 | -4 | – |
| -76 | selective enhancement | – | – | – | CCn1c(C)nc([N+](=O)[O-])c1Sc1ccc(Cl)cn1 [Example 8, 1-Ethyl-2-methyl-4-nitro-5-(5-chloropyridin-2-ylthio)imidazole] | -22 | 7 | – |
| -73 | – | – | – | – | CC1(C)C(c2ccccc2)=NC(c2ccccc2)=[N+]1[O-] [Example 9, 2,4-Diphenyl-5,5-dimethylimidazole-1-oxide] | -15 | 17 | – |
| -73 | – | further stimulation | > 5 | no current activation | C=CCNC(=S)/N=c1\sc2ccccc2n1C [Example 10, 1-Allyl-3-(3-methylbenzo[d]thiazol-2-(3H)-ylidene)thiourea] | 0 | 1 | no significant current |
| -68 | – | – | – | – | N=c1sccn1CC(=O)c1cccc([N+](=O)[O-])c1 [Example 11, 2-(2-Iminothiazol-3(2H)-yl)-1-(3-nitrophenyl)ethanone] | -12 | 21 | – |
| -62 | – | – | – | – | Cc1csc(-c2cn(C(C)C)c(=O)n(Cc3ccccc3)c2=O)n1 [Example 12] | -5 | 3 | – |
| -57 | – | – | – | – | COc1c(Cl)cccc1-c1cn2ccccc2n1 [Example 13, 2-(3-Chloro-2-methoxyphenyl)imidazo[1,2-a]pyridine] | 9 | -10 | – |
| -55 | – | – | – | – | CCc1ccc(-c2csc(NC(=O)c3cc(OC)cc(OC)c3)n2)cc1 [Example 14, N-(4-(4-Ethylphenyl)thiazol-2-yl)-3,5-dimethoxybenzamide] | 10 | -101 | – |
| -48 | – | – | – | – | O=c1sc2ccccc2c2c1ncn2-c1ccccc1 [Example 15, 1-Phenylthiochromeno[4,3-d]imidazol-4(1H)-one] | -22 | -9 | – |
| -23 | – | – | – | – | CN(C)CC(=O)Nc1nc(-c2ccc(Cl)cc2)cs1 [Example 16, N-(4-(4-Chlorophenyl)thiazol-2-yl)-2-(dimethylamino)acetamide] | -25 | -9 | – |
| -16 | – | – | – | – | Cn1nc(C(F)(F)F)c(C(=O)Nc2ccc(C(F)(F)F)cc2)c1Cl [Example 17, 5-Chloro-1-methyl-3-(trifluoromethyl)-N-(4-(trifluoromethyl)phenyl)-1H-pyrazole-4-carboxamide] | 4 | -25 | – |

Source: patent US7674831B2, “Heterocyclic compounds as sweetener enhancers” (Redpoint Bio Corporation, priority 2006, dated 2010)
